Reference: the supplement of paper PMC10307832

compound: COC1=CC=C(C=C1)COC2=C(C=C(C=C2)CC3=CN=C(N=C3N)N)OC [GW-2580] + Cc1nc(Nc2ncc(C(=O)Nc3c(C)cccc3Cl)s2)cc(N2CCN(CCO)CC2)n1 [Dasatinib] (partner 0.075 µM); assay: relative viability (nuclei count vs DMSO), 5 days (fraction); higher = more cells survive; details: first compound 0.08 µM
Procedure, shortened: (§1)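 After 5 days of treatment, lung cancer cells in 1536-well plates were fixed and stained in a single step (final 0.05% Triton X-100, 1% formaldehyde, 1 ug/ml Hoechst) and their nuclei counted on 4× images. Treatment had been applied by pin tool the day after seeding as one drug alone or as a fixed anchor-drug dose with five library-drug doses (not always all listed) in √10 steps. Relative viability is the nuclei count of treated wells divided by that of vehicle wells, and values are medians of duplicate plates.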

Cell Line | relative viability
NCI-H2342 | 0.329
NCI-H1623 | 0.46
NCI-H727 | 0.414
NCI-H1650 | 0.339
NCI-H1993 | 0.611
SW 1573 | 0.464
NCI-H838 | 0.295
LCLC-103H | 0.451
NCI-H520 | 0.203
NCI-H2126 | 0.599
EMC-BAC-2 | 0.317
NCI-H2085 | 0.277
HCC-366 | 0.711
NCI-H1666 | 0.874
NCI-H596 | 0.625
LK-2 | 0.288
NCI-H2087 | 1.11
SK-MES-1 | 0.444
H3255 | 0.287
COR-L23 | 0.566
NCI-H2170 | 0.752
NCI-H522 | 0.95
SW 900 | 0.787
NCI-H1395 | 0.41
NCI-H1792 | 1.48
NCI-H1793 | 0.415
NCI-H1563 | 0.473
NCI-H1944 | 0.207
ABC-1 | 0.559
NCI-H358 | 0.173

same assay, conditions: first compound 0.8 µM

Cell Line | relative viability
NCI-H2342 | 0.327
NCI-H1623 | 0.645
NCI-H727 | 0.409
NCI-H1650 | 0.399
NCI-H1993 | 0.606
SW 1573 | 0.45
NCI-H838 | 0.344
LCLC-103H | 0.496
NCI-H520 | 0.238
NCI-H2126 | 0.736
EMC-BAC-2 | 0.308
NCI-H2085 | 0.217
HCC-366 | 0.759
NCI-H1666 | 0.901
NCI-H596 | 0.543
LK-2 | 0.281
NCI-H2087 | 0.846
SK-MES-1 | 0.477
H3255 | 0.436
COR-L23 | 0.502
NCI-H2170 | 0.769
NCI-H522 | 0.787
SW 900 | 0.505
NCI-H1395 | 0.409
NCI-H1792 | 0.82
NCI-H1793 | 0.451
NCI-H1563 | 0.534
NCI-H1944 | 0.224
ABC-1 | 0.675
NCI-H358 | 0.199

same assay, conditions: first compound 2.53 µM

Cell Line | relative viability
NCI-H2342 | 0.297
NCI-H1623 | 0.447
NCI-H727 | 0.44
NCI-H1650 | 0.326
NCI-H1993 | 0.524
SW 1573 | 0.452
NCI-H838 | 0.241
LCLC-103H | 0.511
NCI-H520 | 0.204
NCI-H2126 | 0.627
EMC-BAC-2 | 0.264
NCI-H2085 | 0.25
HCC-366 | 0.603
NCI-H1666 | 0.758
NCI-H596 | 0.7
LK-2 | 0.282
NCI-H2087 | 0.785
SK-MES-1 | 0.304
H3255 | 0.345
COR-L23 | 0.519
NCI-H2170 | 0.587
NCI-H522 | 0.795
SW 900 | 0.802
NCI-H1395 | 0.401
NCI-H1793 | 0.355
NCI-H1563 | 0.458
NCI-H1944 | 0.203
ABC-1 | 0.55
NCI-H358 | 0.159

same assay, conditions: first compound 8 µM

Cell Line | relative viability
NCI-H2342 | 0.332
NCI-H1623 | 0.583
NCI-H727 | 0.299
NCI-H1650 | 0.296
NCI-H1993 | 0.568
SW 1573 | 0.407
NCI-H838 | 0.316
LCLC-103H | 0.484
NCI-H520 | 0.252
NCI-H2126 | 0.522
EMC-BAC-2 | 0.316
NCI-H2085 | 0.258
HCC-366 | 0.563
NCI-H1666 | 0.755
NCI-H596 | 0.688
LK-2 | 0.295
NCI-H2087 | 0.774
SK-MES-1 | 0.292
H3255 | 0.281
COR-L23 | 0.464
NCI-H2170 | 0.672
NCI-H522 | 1.02
SW 900 | 0.585
NCI-H1395 | 0.427
NCI-H1792 | 1.01
NCI-H1793 | 0.399
NCI-H1563 | 0.447
NCI-H1944 | 0.212
ABC-1 | 0.534
NCI-H358 | 0.115

compound: COC1=CC=C(C=C1)COC2=C(C=C(C=C2)CC3=CN=C(N=C3N)N)OC [GW-2580] + Nc1nc2[nH]cc(CCc3ccc(C(=O)N[C@@H](CCC(=O)O)C(=O)O)cc3)c2c(=O)[nH]1 [Pemetrexed] (partner 0.2 µM); assay: as above; details: first compound 0.08 µM
Procedure, shortened: as §1

Cell Line | relative viability
NCI-H2342 | 0.705
NCI-H1650 | 0.468
NCI-H1993 | 0.601
SW 1573 | 0.908
NCI-H838 | 0.268
LCLC-103H | 0.452
NCI-H520 | 0.7
NCI-H2126 | 0.664
EMC-BAC-2 | 0.503
NCI-H2085 | 0.963
HCC-366 | 0.194
NCI-H1666 | 0.863
NCI-H596 | 0.44
LK-2 | 0.287
NCI-H2087 | 0.68
NCI-H1648 | 0.778
SK-MES-1 | 1.01
H3255 | 0.553
COR-L23 | 0.197
NCI-H2170 | 0.26
HCC-44 | 0.727
NCI-H522 | 1.11
SW 900 | 0.509
NCI-H1395 | 0.9
NCI-H1792 | 0.843
NCI-H1793 | 0.982
NCI-H1563 | 0.763
NCI-H1944 | 0.621
NCI-H358 | 0.171

same assay, conditions: first compound 0.8 µM

Cell Line | relative viability
NCI-H2342 | 0.828
NCI-H1650 | 0.391
NCI-H1993 | 0.703
SW 1573 | 0.883
NCI-H838 | 0.262
LCLC-103H | 0.416
NCI-H520 | 0.579
NCI-H2126 | 0.709
EMC-BAC-2 | 0.43
NCI-H2085 | 1.01
HCC-366 | 0.145
NCI-H1666 | 0.91
NCI-H596 | 0.502
LK-2 | 0.283
NCI-H2087 | 0.713
SK-MES-1 | 1.04
H3255 | 0.609
COR-L23 | 0.196
NCI-H2170 | 0.261
HCC-44 | 0.638
NCI-H522 | 0.97
SW 900 | 0.511
NCI-H1395 | 0.986
NCI-H1792 | 0.773
NCI-H1793 | 1.08
NCI-H1563 | 0.883
NCI-H1944 | 0.638
NCI-H358 | 0.186

same assay, conditions: first compound 2.53 µM

Cell Line | relative viability
NCI-H2342 | 0.682
NCI-H1650 | 0.418
NCI-H1993 | 0.54
SW 1573 | 0.861
NCI-H838 | 0.234
LCLC-103H | 0.447
NCI-H520 | 0.598
NCI-H2126 | 0.63
NCI-H2085 | 0.885
HCC-366 | 0.16
NCI-H1666 | 0.901
NCI-H596 | 0.562
LK-2 | 0.245
NCI-H2087 | 0.7
NCI-H1648 | 0.609
SK-MES-1 | 0.878
H3255 | 0.554
COR-L23 | 0.205
NCI-H2170 | 0.264
HCC-44 | 0.649
NCI-H522 | 0.967
SW 900 | 0.495
NCI-H1395 | 0.863
NCI-H1792 | 0.688
NCI-H1793 | 0.649
NCI-H1563 | 0.674
NCI-H1944 | 0.556
NCI-H358 | 0.166

same assay, conditions: first compound 8 µM

Cell Line | relative viability
NCI-H2342 | 0.733
NCI-H1650 | 0.371
NCI-H1993 | 0.576
SW 1573 | 0.639
NCI-H838 | 0.266
LCLC-103H | 0.5
NCI-H520 | 0.554
NCI-H2126 | 0.612
EMC-BAC-2 | 0.502
NCI-H2085 | 0.838
HCC-366 | 0.121
NCI-H1666 | 0.787
NCI-H596 | 0.512
LK-2 | 0.295
NCI-H2087 | 0.625
NCI-H1648 | 0.611
SK-MES-1 | 0.824
H3255 | 0.552
COR-L23 | 0.194
NCI-H2170 | 0.251
HCC-44 | 0.666
NCI-H522 | 0.994
SW 900 | 0.547
NCI-H1395 | 0.88
NCI-H1792 | 0.644
NCI-H1793 | 0.844
NCI-H1563 | 0.792
NCI-H1944 | 0.512
NCI-H358 | 0.178

compound: Cc1cnc(Nc2ccc(OCCN3CCCC3)cc2)nc1Nc1cccc(S(=O)(=O)NC(C)(C)C)c1 [Fedratinib] + CC(C)C[C@H](NC(=O)[C@H](Cc1ccccc1)NC(=O)c1cnccn1)B(O)O [Bortezomib] (partner 0.002 µM); assay: as above; details: first compound 0.1 µM
Procedure, shortened: as §1

Cell Line | relative viability
NCI-H727 | 0.655
NCI-H1650 | 0.199
EBC-1 | 0.478
NCI-H1703 | 0.244
NCI-H1993 | 0.993
SW 1573 | 1.05
NCI-H838 | 0.588
LCLC-103H | 0.801
NCI-H520 | 0.524
NCI-H2126 | 1.08
EMC-BAC-2 | 1.14
NCI-H2085 | 1.04
Calu-6 | 1.05
HCC-366 | 1.22
NCI-H1666 | 0.649
NCI-H596 | 1.01
NCI-H2087 | 0.806
H3255 | 0.63
COR-L23 | 1.14
IA-LM | 0.747
HCC-44 | 0.905
NCI-H1299 | 1.05
NCI-H1792 | 1.14
NCI-H1563 | 0.699
ABC-1 | 0.339

same assay, conditions: first compound 0.3162 µM

Cell Line | relative viability
NCI-H727 | 0.733
NCI-H1650 | 0.221
EBC-1 | 0.501
NCI-H1703 | 0.341
NCI-H1993 | 0.979
SW 1573 | 0.911
NCI-H838 | 0.808
LCLC-103H | 0.997
NCI-H520 | 0.711
NCI-H2126 | 1.12
EMC-BAC-2 | 1.01
NCI-H2085 | 1.09
Calu-6 | 0.981
HCC-366 | 1
NCI-H1666 | 0.944
NCI-H596 | 1.21
NCI-H2087 | 0.754
H3255 | 0.742
COR-L23 | 0.975
IA-LM | 0.784
HCC-44 | 0.827
NCI-H1299 | 1.02
NCI-H1792 | 0.994
NCI-H1563 | 0.939
ABC-1 | 0.363

same assay, conditions: first compound 1 µM

Cell Line | relative viability
NCI-H727 | 0.178
NCI-H1650 | 0.193
EBC-1 | 0.39
NCI-H1703 | 0.24
NCI-H1993 | 0.48
